Data from article PMC11044166, “Synthesis, DFT Calculations, In Silico Studies, and Antimicrobial Evaluation of Benzimidazole-Thiadiazole Derivatives” (ACS Omega, 2024).
Converted amounts (≈) assume the structure as drawn. Where two headings read alike, the source gives them in different places.

Key:
[1] = tested on: B. subtilis; assay: Antibacterial microdilution MIC; format: cell-based; conditions: Bacillus subtilis
Experimental: (§1) The antifungal and antibacterial activities of the synthesized compounds (5a–i) were evaluated in vitro against E. coli (ATCC 25922), S. marcescens (ATCC 8100), K. pneumoniae (ATCC 13883), P. aeruginosa (ATCC 27853), E. faecalis (ATCC 2942), B. subtilis, S. aureus (ATCC 29213), S. epidermidis (ATCC 12228), C. albicans (ATCC 24433), C. krusei (ATCC 6258), and C. parapsilosis (ATCC 22019). The final synthesized compounds were evaluated as antibacterial and antifungal references, in comparison to azithromycin, voriconazole, and fluconazole. Tables 1 and 2 provide a summary of the antimicrobial activity test results and the minimum inhibitory concentrations (MICs) of the compounds (5a–i).
(§2) The antimicrobial activity of the final compounds (5a–i) was screened against eight species of pathogenic bacteria and […] (E. coli (ATCC 25922), S. marcescens (ATCC 8100), K. pneumonia (ATCC 13883), P. aeruginosa (ATCC 27853), E. faecalis (ATCC 2942), B. subtilis (NRRL NRS 744), S. aureus (ATCC 29213), S. epidermidis (ATCC 12228), C. albicans (ATCC 24433), C. glabrata (ATCC 90030), C. krusei (ATCC 6258), and C. parapsilosis (ATCC 22 019)) according to the microdilution standard methods CLSI M07-A9 (2012) and NCCLS M27-A2 (2002), as described in the previous study.[25],[26]

[2] = tested on: S. epidermidis (ATCC 12228); assay: Antibacterial microdilution MIC; format: cell-based; conditions: Staphylococcus epidermidis, ATCC12228
Experimental: as §1, §2

[3] = tested on: E. faecalis (ATCC 2942); assay: Antibacterial microdilution MIC; format: cell-based; conditions: Enterococcus faecalis, ATCC2942
Experimental: as §1, §2

[4] = tested on: S. marcescens (ATCC 8100); assay: Antibacterial microdilution MIC; format: cell-based; conditions: Serratia marcescens, ATCC8100
Experimental: as §1, §2

[5] = tested on: E. coli (ATCC 25922); assay: Antibacterial microdilution MIC; format: cell-based; conditions: Escherichia coli, ATCC25922
Experimental: as §1, §2

[6] = tested on: K. pneumoniae (ATCC 13883); assay: Antibacterial microdilution MIC; format: cell-based; conditions: Klebsiella pneumoniae, ATCC13883
Experimental: as §1, §2

[7] = tested on: S. aureus (ATCC 29213); assay: Antibacterial microdilution MIC; format: cell-based; conditions: Staphylococcus aureus, ATCC29213
Experimental: as §1, §2

[8] = tested on: P. aeruginosa (ATCC 27853); assay: Antibacterial microdilution MIC; format: cell-based; conditions: Pseudomonas aeruginosa, ATCC27853
Experimental: as §1, §2

[9] = tested on: C. albicans (ATCC 24433); assay: Antifungal microdilution MIC; format: cell-based; conditions: Candida albicans, ATCC24433
Experimental: as §1, §2

[10] = tested on: C. parapsilosis (ATCC 22019); assay: Antifungal microdilution MIC; format: cell-based; conditions: Lodderomyces parapsilosis, ATCC22019
Experimental: as §1, §2

[11] = tested on: C. krusei (ATCC 6258); assay: Antifungal microdilution MIC; format: cell-based; conditions: Pichia kudriavzevii, ATCC6258
Experimental: as §1, §2

[12] = tested on: L929 fibroblast cell line; assay: Cytotoxicity MTT assay on healthy cells; format: cell-based; conditions: L929 healthy mouse fibroblast cells
Experimental: The effect of the compounds between 5a–i on the viability of the L929 cell line was analyzed by MTT assay. The MTT method was performed as previously described.[27]

[13] = F: B. subtilis, Gram-positive, read-out: MIC
[14] = H: S. epidermidis (ATCC 12228), Gram-positive, read-out: MIC
[15] = E: E. faecalis (ATCC 2942), Gram-positive, read-out: MIC
[16] = B: S. marcescens (ATCC 8100), Gram-negative, read-out: MIC
[17] = A: E. coli (ATCC 25922), Gram-negative, read-out: MIC
[18] = C: K. pneumoniae (ATCC 13883), Gram-negative, read-out: MIC
[19] = G: S. aureus (ATCC 29213), Gram-positive, read-out: MIC
[20] = D: P. aeruginosa (ATCC 27853), Gram-negative, read-out: MIC
[21] = C. albicans (ATCC 24433), read-out: MIC
[22] = C. parapsilosis (ATCC 22019), read-out: MIC
[23] = C. krusei (ATCC 6258), read-out: MIC

Structure (SMILES)	MIC [1, 13]	MIC [2, 14]	MIC [3, 15]	MIC [4, 16]	MIC [5, 17]	MIC [6, 18]	MIC [7, 19]	MIC [8, 20]	melting point	MIC [9, 21]	MIC [10, 22]	MIC [11, 23]	IC50 [12]	further results
CCCNc1nnc(-c2ccc(-c3nc4ccccc4[nH]3)cc2)s1 [Compound 5g, N-Propyl-5-(4-(1H-Benzo[d]imidazole-2-Yl)phenyl)-1,3,4-Thiadiazole-2-Amine]	125 µg/mL (≈ 373 µM)	31.2 µg/mL (≈ 93.2 µM)	15.6 µg/mL (≈ 46.6 µM)	250 µg/mL (≈ 745 µM)	125 µg/mL (≈ 373 µM)	125 µg/mL (≈ 373 µM)	31.2 µg/mL (≈ 93.2 µM)	125 µg/mL (≈ 373 µM)	275.2 °C	7.81 µg/mL (≈ 23.3 µM)	125 µg/mL (≈ 373 µM)	125 µg/mL (≈ 373 µM)	–	–
Clc1ccccc1Nc1nnc(-c2ccc(-c3nc4ccccc4[nH]3)cc2)s1 [Compound 5d, N-(2-Chlorophenyl)-5-(4-(1H-Benzo[d]imidazole-2-Yl)phenyl)-1,3,4-Thiadiazole-2-Amine]	125 µg/mL (≈ 309 µM)	31.2 µg/mL (≈ 77.4 µM)	7.81 µg/mL (≈ 19.3 µM)	62.5 µg/mL (≈ 155 µM)	125 µg/mL (≈ 309 µM)	125 µg/mL (≈ 309 µM)	7.81 µg/mL (≈ 19.3 µM)	125 µg/mL (≈ 309 µM)	294.8 °C	7.81 µg/mL (≈ 19.3 µM)	125 µg/mL (≈ 309 µM)	125 µg/mL (≈ 309 µM)	197 ± 14.7 µM	–
CCNc1nnc(-c2ccc(-c3nc4ccccc4[nH]3)cc2)s1 [Compound 5b, N-Ethyl-5-(4-(1H-Benzo[d]imidazole-2-Yl)phenyl)-1,3,4-Thiadiazole-2-Amine]	125 µg/mL (≈ 389 µM)	31.2 µg/mL (≈ 97.2 µM)	3.9 µg/mL (≈ 12.1 µM)	62.5 µg/mL (≈ 194 µM)	62.5 µg/mL (≈ 194 µM)	62.5 µg/mL (≈ 194 µM)	31.2 µg/mL (≈ 97.2 µM)	62.5 µg/mL (≈ 194 µM)	321.6 °C	7.81 µg/mL (≈ 24.3 µM)	15.6 µg/mL (≈ 48.6 µM)	31.2 µg/mL (≈ 97.2 µM)	119 ± 9.64 µM	–
CNc1nnc(-c2ccc(-c3nc4ccccc4[nH]3)cc2)s1 [Compound 5a, N-Methyl-5-(4-(1H-Benzo[d]imidazole-2-Yl)phenyl)-1,3,4-Thiadiazole-2-Amine]	125 µg/mL (≈ 407 µM)	7.81 µg/mL (≈ 25.4 µM)	3.9 µg/mL (≈ 12.7 µM)	62.5 µg/mL (≈ 203 µM)	250 µg/mL (≈ 813 µM)	125 µg/mL (≈ 407 µM)	7.81 µg/mL (≈ 25.4 µM)	62.5 µg/mL (≈ 203 µM)	325.6 °C	31.2 µg/mL (≈ 102 µM)	125 µg/mL (≈ 407 µM)	125 µg/mL (≈ 407 µM)	152 ± 3.64 µM	–
c1ccc2[nH]c(-c3ccc(-c4nnc(NC5CCCCC5)s4)cc3)nc2c1 [Compound 5e, N-Cyclohexyl-5-(4-(1H-Benzo[d]imidazole-2-Yl)phenyl)-1,3,4-Thiadiazole-2-Amine]	250 µg/mL (≈ 666 µM)	7.81 µg/mL (≈ 20.8 µM)	15.6 µg/mL (≈ 41.6 µM)	125 µg/mL (≈ 333 µM)	125 µg/mL (≈ 333 µM)	125 µg/mL (≈ 333 µM)	125 µg/mL (≈ 333 µM)	125 µg/mL (≈ 333 µM)	276.5 °C	7.81 µg/mL (≈ 20.8 µM)	125 µg/mL (≈ 333 µM)	125 µg/mL (≈ 333 µM)	102 ± 12 µM	–
CC(C)Nc1nnc(-c2ccc(-c3nc4ccccc4[nH]3)cc2)s1 [Compound 5f, N-Isopropyl-5-(4-(1H-Benzo[d]imidazole-2-Yl)phenyl)-1,3,4-Thiadiazole-2-Amine]	125 µg/mL (≈ 373 µM)	3.9 µg/mL (≈ 11.6 µM)	3.9 µg/mL (≈ 11.6 µM)	125 µg/mL (≈ 373 µM)	125 µg/mL (≈ 373 µM)	125 µg/mL (≈ 373 µM)	62.5 µg/mL (≈ 186 µM)	125 µg/mL (≈ 373 µM)	324.7 °C	3.9 µg/mL (≈ 11.6 µM)	125 µg/mL (≈ 373 µM)	125 µg/mL (≈ 373 µM)	175 ± 3.02 µM	–
ClCCNc1nnc(-c2ccc(-c3nc4ccccc4[nH]3)cc2)s1 [Compound 5c, N-(2-Chloroethyl)-5-(4-(1H-Benzo[d]imidazole-2-Yl)phenyl)-1,3,4-Thiadiazole-2-Amine]	–	–	–	–	–	–	–	–	191.2 °C	–	–	–	–	MIC [1]: 62.5 µg/mL (≈ 176 µM); MIC [2]: 31.2 µg/mL (≈ 87.8 µM); MIC [3]: 15.6 µg/mL (≈ 43.9 µM); MIC [4]: 62.5 µg/mL (≈ 176 µM); MIC [5]: 62.5 µg/mL (≈ 176 µM); MIC [6]: 62.5 µg/mL (≈ 176 µM); MIC [7]: 31.2 µg/mL (≈ 87.8 µM); MIC [8]: 125 µg/mL (≈ 351 µM); MIC [9]: 31.2 µg/mL (≈ 87.8 µM); MIC [10]: 125 µg/mL (≈ 351 µM); MIC [11]: 125 µg/mL (≈ 351 µM)
COc1ccc(Nc2nnc(-c3ccc(-c4nc5ccccc5[nH]4)cc3)s2)cc1 [Compound 5h, N-(4-Methoxyphenyl)-5-(4-(1H-Benzo[d]imidazole-2-Yl)phenyl)-1,3,4-Thiadiazole-2-Amine]	125 µg/mL (≈ 313 µM)	31.2 µg/mL (≈ 78.2 µM)	3.9 µg/mL (≈ 9.76 µM)	62.5 µg/mL (≈ 156 µM)	31.2 µg/mL (≈ 78.2 µM)	62.5 µg/mL (≈ 156 µM)	31.2 µg/mL (≈ 78.2 µM)	31.2 µg/mL (≈ 78.2 µM)	276.7 °C	3.9 µg/mL (≈ 9.76 µM)	125 µg/mL (≈ 313 µM)	125 µg/mL (≈ 313 µM)	76 ± 9.4 µM	–

Second part, led by results:

MIC [1, 13]	MIC [2, 14]	MIC [3, 15]	MIC [4, 16]	MIC [5, 17]	MIC [6, 18]	MIC [7, 19]	MIC [8, 20]	melting point	MIC [9, 21]	MIC [10, 22]	MIC [11, 23]	Structure (SMILES)	IC50 [12]	further results
< 0.97 µg/mL	< 0.97 µg/mL	< 0.97 µg/mL	< 0.97 µg/mL	< 0.97 µg/mL	< 0.97 µg/mL	< 0.97 µg/mL	< 0.97 µg/mL	–	–	–	–	CC[C@H]1OC(=O)[C@H](C)[C@@H](O[C@H]2C[C@@](C)(OC)[C@@H](O)[C@H](C)O2)[C@H](C)[C@@H](O[C@@H]2O[C@H](C)C[C@H](N(C)C)[C@H]2O)[C@](C)(O)C[C@@H](C)CN(C)[C@H](C)[C@@H](O)[C@]1(C)O [azithromycin, reference compound]	–	–
–	–	–	–	–	–	–	–	–	7.81 µg/mL (≈ 25.5 µM)	7.81 µg/mL (≈ 25.5 µM)	7.81 µg/mL (≈ 25.5 µM)	OC(Cn1cncn1)(Cn1cncn1)c1ccc(F)cc1F [fluconazole, reference compound]	–	–
–	–	–	–	–	–	–	–	–	3.9 µg/mL (≈ 11.2 µM)	3.9 µg/mL (≈ 11.2 µM)	3.9 µg/mL (≈ 11.2 µM)	C[C@@H](c1ncncc1F)[C@](O)(Cn1cncn1)c1ccc(F)cc1F [voriconazole, reference compound]	–	–
125 µg/mL (≈ 358 µM)	62.5 µg/mL (≈ 179 µM)	15.6 µg/mL (≈ 44.7 µM)	62.5 µg/mL (≈ 179 µM)	125 µg/mL (≈ 358 µM)	62.5 µg/mL (≈ 179 µM)	62.5 µg/mL (≈ 179 µM)	31.2 µg/mL (≈ 89.4 µM)	315.6 °C	31.2 µg/mL (≈ 89.4 µM)	125 µg/mL (≈ 358 µM)	125 µg/mL (≈ 358 µM)	CC(C)CNc1nnc(-c2ccc(-c3nc4ccccc4[nH]3)cc2)s1 [Compound 5i, N-Isobutyl-5-(4-(1H-Benzo[d]imidazole-2-Yl)phenyl)-1,3,4-Thiadiazole-2-Amine]	–	–
